Data on eight molecules can be found in patent publication US10736910B2, “Treatment of autophagy-based disorders and related pharmaceutical compositions, diagnostic and screening assays and kits” (STC.UNM, priority 2012, dated 2020).

For experiment [1], the system named is Atg5fl/fl LysM-Cre− and Cre+ bone marrow-derived macrophages (BMM). As to the kind of experiment: IL-1α release (ELISA) from LPS- and IFN-γ-stimulated bone marrow-derived macrophages. The format is cell-based, murine. The following applies: 12 h; for IL-1α secreted: autophagy-competent Atg5fl/fl LysM-Cre− BMM, LPS and IFN-γ stimulated, 50 μg/ml rapamycin, 10 mM 3-MA or 100 nM Bafilomycin A1. The text has this:
FIG. 5. Excess cytokine secretion is a cell-autonomous property of autophagy-deficient macrophages and IL-1α hypersecretion by Atg5^fl/fl LysM-Cre^+ macrophages depends on reactive oxygen intermediates and calpain. (A-C) In vitro cytokine (IL-1α, CXCL1, and IL-12p70) release (ELISA) from LPS- and IFN-γ-stimulated Atg5^fl/fl LysM-Cre^− and Cre^+ bone marrow-derived macrophages (BMM). (D) CXCL1 released from LPS- and IFN-γ-stimulated Atg5^fl/fl LysM-Cre^+ BMM in the absence of presence of IL-1RA ([…]). (E) Fraction of 7-AAD^+ BMM after LPS and IFN-γ stimulation in vitro. (F,G) IL-1α and CXCL1 levels (ELISA) in lung homogenates of uninfected Atg5^fl/fl LysM-Cre^− and Cre^+ mice. (H,I) IL-1α (ELISA) released from LPS- and IFN-γ stimulated Atg5^fl/fl LysM-Cre BMM in the presence of 50 μg/ml rapamycin (Rap), 10 mM 3-MA, or 100 nM Bafilomycin A1 (Baf A1) after 12 h of stimulation. (J) IL-1α secretion during inflammasome activation. Atg5^fl/fl LysM-Cre^− and Cre^+ BMM were pretreated overnight with LPS (100 ng/ml) then stimulated for 1 h in the absence or presence of the inflammasome agonist silica (250 μg/ml) in EBSS. (K) IL-1α secretion in the presence of caspase 1 inhibitor YVAD. Atg5^fl/fl LysM-Cre^− and Cre^+ BMM were pretreated overnight with LPS (100 ng/ml) then stimulated for 1 h in the absence or presence of YVAD (50 μM) during inflammasome activation with silica as in J. (L) Effects of caspase 1 siRNA knockdown (immunoblot, left) on IL-1α release (graph, right) from Atg5^fl/fl LysM-Cre^+ BMM. Graph (center), IL-1α release from LPS-stimulated siRNA-treated Atg5^fl/fl LysM-Cre^+ BMM in full media or EBSS (Starv). Graph (right), same as middle graph in full medium only. Casp 1, caspase 1 siRNA: Scr, scrambled, control siRNA. (M) IL-1α release from LPS- and IFN-γ-stimulated Atg5^fl/fl LysM-Cre^+ BMM knocked down with siRNA for inflammasome components ASC and NLRP3. (N,O) ROS inhibition and IL-1 secretion: IL-1α (N) and IL-1β (0) released (ELISA) from LPS- and IFN-γ-stimulated Atg5^fl/fl LysM-Cre^− and Cre^+ BMM in the absence or presence of ROS antagonist APDC (50 μM) after 12 h of incubation. (P) Calpain and […] hypersecretion phenotype. IL-1β (ELISA) released from LPS- and IFN-γ stimulated Atg5^fl/fl LysM-Cre^− and Cre^+ BMM in the absence or presence of calpain inhibitor ALLN (100 μM) after 12 h of stimulation. Data, mean±SE, *p<0.05, **p<0.01, † p>0.05 (t test; n≥3).
(§1) All cells were pretreated with Stain FcX (anti-CD16/32) (Biolegend) before being stained for. […] Caspase 1 activity was measured by flow cytometry using the FLICA caspase 1 reagent (FAM-YVAD-FMK) (Immunochemistry Technologies). […] Secreted cytokines (IL-1αIL-1β CXCL1, CXCL2 and IL-12p70) were measured by ELISA (R&D Systems). […]
On the technique in general: In an ELISA, binding on a coated surface is turned into a signal by an enzyme label.

Experiment [2] shares this test system. The experiment in a line: IL-1β release (ELISA) from LPS- and IFN-γ-stimulated bone marrow-derived macrophages. The following applies: APDC 50 μM, 12 h. The format is cell-based, murine. The text has this: (§2) FIG. 5. Excess cytokine secretion is a cell-autonomous property of autophagy-deficient macrophages and IL-1α hypersecretion by Atg5^fl/fl LysM-Cre^+ macrophages depends on reactive oxygen intermediates and calpain. (A-C) In vitro cytokine (IL-1α, CXCL1, and IL-12p70) release (ELISA) from LPS- and IFN-γ-stimulated Atg5^fl/fl LysM-Cre^− and Cre^+ bone marrow-derived macrophages (BMM). (D) CXCL1 released from LPS- and IFN-γ-stimulated Atg5^fl/fl LysM-Cre^+ BMM in the absence of presence of IL-1RA ([…]). (E) Fraction of 7-AAD^+ BMM after LPS and IFN-γ stimulation in vitro. (F,G) IL-1α and CXCL1 levels (ELISA) in lung homogenates of uninfected Atg5^fl/fl LysM-Cre^− and Cre^+ mice. (H,I) IL-1α (ELISA) released from LPS- and IFN-γ stimulated Atg5^fl/fl LysM-Cre BMM in the presence of 50 μg/ml rapamycin (Rap), 10 mM 3-MA, or 100 nM Bafilomycin A1 (Baf A1) after 12 h of stimulation. (J) IL-1α secretion during inflammasome activation. […]
FIG. 10. […] IL-1β secretion was examined in autophagy-competent Atg5fl/fl LysM-CreBMM and IL-1α secretion was measured in autophagy-deficient Atg5fl/fl LysM-Cre+ BMM. […]
All cells were pretreated with Stain FcX (anti-CD16/32) (Biolegend) before being stained for. […] Caspase 1 activity was measured by flow cytometry using the FLICA caspase 1 reagent (FAM-YVAD-FMK) (Immunochemistry Technologies). […]

A further experiment concerns TBK-1. The experiment in a line: IL-1β secretion with pharmacological TBK-1 inhibition (preliminary studies). In kind it is cell-based. The following applies: preliminary studies with TBK-1 inhibitor.
The subject of another experiment is BMM. The experiment in a line: HMGB1 extracellular release from BMM (immunoblot of culture supernatants). In kind it is cell-based, murine. The following applies: BMM stimulated with nigericin; largely diminished in Atg5-deficient BMM. The text has this:
We tested whether induction of autophagy affected other proteins not connected to proteolytic processing in the inflammasome, such as HMGB1 (high mobility group box 1 protein). HMGB1 is a major pro-inflammatory alarmin or DAMP (damage-associated molecular pattern) normally present in the nucleus (34A). This chromatin-associated nuclear protein (with additional intracellular and extracellular signaling roles), upon exposure to inputs including those that induce autophagy (63A,64A), undergoes a complex set of biochemical and localization changes. In the process, it first translocates from the nucleus into the cytoplasm and then is released from the cytoplasm to act in tissue remodeling signaling (when acting alone) or as an inflammatory mediator (when combined with bacterial agonists or other alarmins such as IL-1β). […] HMGB1, along with additional unconventional substrates, depends on inflammasome for secretion although the protein itself is not subjected to proteolytic processing by caspase 1 (65A-68A).
Background: Immunoblotting shows a protein as a band on a membrane.

The test system of another experiment is Atg5fl/fl LysM-Cre+ BMM. As to the kind of experiment: CXCL1 release (ELISA) from LPS- and IFN-γ-stimulated Atg5fl/fl LysM-Cre+ BMM. In kind it is cell-based, murine. The arrangement: dose or concentration left out as unconfirmed. The following applies: IL-1RA.
From the text: as §2, §1

In another experiment the test system is naïve CD4 T cells. As to the kind of experiment: Ex vivo Th17 polarization of naïve CD4 T cells (intracellular IL-17A, flow cytometry). The format is cell-based, mice. The following applies: 20 ng/ml IL-1α in combination with 5 ng/ml TGF-β and 20 ng/ml IL-6, day 4. The protocol:
FIG. 9. T cell activation state and IL-1α role in T cell IL-17 polarization. (A,B) CD44 and CD25 expression on CD4 T cells from lungs of uninfected Atg5fl/fl LysM-Cre and Cre+mice. (C-F) Intracellular IL-17A production (day 4; release blocked with monensin) by naïve CD4 T cells polarized in the presence of cytokine cocktails: 5 ng/ml TGF-β and 20 ng/ml IL-6, plus 20 ng/ml IL-1α or 20 ng/ml IL-1β. Dot plot (panel C), levels of IL-17A in unstimulated cells (starting material). Histograms (D,E), IL-17A in naïve CD4 T cells polarized in the presence of TGF-β, IL-6 and IL-1α (panel D) or TGF-β, IL-6 and IL-1β (panel E). (F) Percent of IL-17A+CD4 T cells under respective polarizing conditions. Data: mean±SE; † p>0.05 (t test; n≥3).
Single cell suspensions from whole lungs isolated from naïve Atg5^fl/fl LysM-Cre^+ and Cre^− mice were cultured in RPMI 10% FBS and Cell Stimulation Cocktail (phorbol 12-myristate 13-acetate and ionomycin plus brefeldin A and monensin; eBioscience) for 4 h and analyzed by flow cytometry. […] After 4 days, cells were stimulated with 1× Cell Stimulation Cocktail in the presence of protein transport inhibitors for 5 hours at 37° C. and analyzed by flow cytometry.
(In general: A flow cytometer gives signals particle by particle.)

Square brackets hold non-standard residues; d marks the D form. Peptide text beside a SMILES is read from it. Nle = CCCC[C@H](N)C(=O)O

Turning to `Cn1cnc(N)c2ncnc1-2` [3MA, 3-methyladenine], the IL-1α secreted result in experiment [1] is listed as “significantly increased”.

Take `CCCC[C@@H](C=O)NC(=O)[C@H](CC(C)C)NC(=O)[C@H](CC(C)C)NC(C)=O` [ALLN] (Ac-Leu-Leu-[Nle]-aldehyde): in experiment [1] (LPS- and IFN-γ-stimulated Atg5fl/fl LysM-Cre+ BMM, ALLN 100 μM), the “excess IL-1α production” value was “completely inhibited the excess IL-1α production”. With `N[C@@]1(C(=O)O)CN[C@@H](C(=O)O)C1` [APDC, (2R,4R)-4-aminopyrrolidine-2,4-dicarboxylate], the “excessive IL-1β release” value in experiment [2] was “inhibited excessive IL-1β release”. Besides, the “excessive IL-1α release” value in experiment [1] (LPS- and IFN-γ-stimulated Atg5fl/fl LysM-Cre+ BMM, APDC 50 μM) is given as “abrogated excessive IL-1α”. As to `O=C(NCCCNc1nc(Nc2cccc(NC(=O)N3CCCC3)c2)ncc1I)c1cccs1` [BX795], the IL-1β secretion entry in the experiment with TBK-1 is recorded as “reduced”. In the case of `CO/C1=C\C(C)=C\[C@@H](C)[C@@H](O)[C@@H](C)C/C(C)=C/C=C/[C@H](OC)[C@@H]([C@@H](C)[C@@H](O)[C@H](C)[C@@]2(O)C[C@@H](O)[C@H](C)[C@@H](C(C)C)O2)OC1=O` [bafilomycin A1], in experiment [1], the IL-1α secreted entry is on record as “An effect similar to 3MA”.

On to `CO[C@@H]1C[C@@H](C[C@H]2CC[C@H](C)[C@H]([C@@H](C)C(=O)O)O2)O[C@]2(O[C@](C)([C@H]3CC[C@@](C)([C@@H]4O[C@@H]([C@H]5O[C@@](O)(CO)[C@H](C)C[C@@H]5C)C[C@@H]4C)O3)C[C@H]2C)[C@@H]1C` [nigericin], for which, in the experiment with BMM, the “HMGB1 in culture supernatants” value is reported as “An HMGB1 band was detected”. Regarding “IL-1RA: IL-1 receptor antagonist (R&D Systems)”, the CXCL1 levels result in the experiment on Atg5fl/fl LysM-Cre+ BMM is “lowered CXCL1 levels”.

B1: IL-1α: cytokine (R&D Systems) added at 20 ng/ml for T cell polarization (protein, UniProt P01583 113-271, looked up)
Interleukin-1 alpha: SAPFSFLSNVKYNFMRIIKYEFILNDALNQSIIRANDQYLTAAALHNLDEAVKFDMGAYKSSKDDAKITVILRISKTQLYVTAQDEDQPVLLKEMPEIPKTITGSETNLLFFWETHGTKNYFTSVAHPNLFIATKQDYWVCLAGGPPSITDFQILENQA
Turning to B1, in the experiment on naïve CD4 T cells, the “Th17 polarization (IL-17A+ CD4 T cells)” value is listed as “showed a capacity to promote Th17 polarization”.
